From PubChem BioAssay (NCI) come the findings set out here.

Holding throughout (experiment): inhibition of tumour cell growth, NCI panel, 48 h
Experiment [1] relates to LOX IMVI melanoma.
Experiment [2] relates to NCI-H226 lung.
Experiment [3] has as its system OVCAR-4 ovarian.
For experiment [4], the system named is SF-539 CNS.
Experiment [5] has as its system OVCAR-8 ovarian.
The test system of experiment [6] is SF-268 CNS.
Experiment [7] deals with CAKI-1 renal.
For experiment [8], the system named is UO-31 renal.
The test system of experiment [9] is HCT-116 colon.
The subject of experiment [10] is HOP-92 NSCLC.

Several values for one entry are separate records, joined by “and”; a condition that tells them apart may be missing. Equal values may be shown once.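 Step 1: Grow cells in 96-well plates. Step 2: Expose to compound for 48 hours at 5 concentrations. Step 3: Interpolate endpoints linearly; if unreached, use highest concentration. Here, GI50 denotes the concentration required for 50% inhibition of growth. TGI is the concentration that stops growth completely.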

Consider `[Cl-].[O-]/N=C(\c1ccccc1)c1ccccn1.[O-]/N=C(\c1ccccc1)c1ccccn1.[O-]/N=C(\c1ccccc1)c1ccccn1.[Sm+3]`, for which the GI50 in experiment [1] is 22.4 µM; in [2], 24.1 µM; in experiment [3] it was 43.3 µM; in experiment [4] it was 28.1 µM; in experiment [5], 29.8 µM; in experiment [6], 30 µM. Moreover, the GI50 in [7] is 27.1 µM; in [8], 18.7 µM; in experiment [9], 41.2 µM; in experiment [10], 23.6 µM. Moreover, the TGI is 53.3 µM in experiment [1]; 62.5 µM in experiment [2]; over 100 µM in experiment [3]; 75.2 µM in experiment [4]; over 100 µM in experiment [5]; 87.3 µM in experiment [6]. Besides, the TGI in experiment [7] was 89.5 µM; in experiment [8], 55.5 µM; in experiment [9] it was over 100 µM; in experiment [10], 87.8 µM.
For `FC(F)c1nc2ccccc2n1-c1nc(N2CCOCC2)nc(N2CCOCC2)n1`, the GI50 in experiment [1] was 0.376 µM and 0.491 µM; in experiment [2], 0.249 µM and 0.452 µM; in experiment [3] it was 0.797 µM and 0.475 µM; in experiment [4], 0.382 µM and 0.457 µM; in experiment [5], 0.639 µM and 0.492 µM; in [6], 0.361 µM and 0.6 µM. The GI50 in experiment [7] is 0.197 µM and 0.268 µM; in experiment [8] it was 0.046 µM and 0.103 µM; in experiment [9], 0.618 µM and 0.734 µM; in experiment [10] it was 0.0486 µM and 0.0548 µM. The TGI in experiment [3] was 6.87 µM and 5.39 µM; in experiment [4], 2.29 µM and 3.52 µM; in experiment [5], over 100 µM; in [6], over 100 µM; in experiment [7] it was 4.25 µM and 2.35 µM; in experiment [8], 0.835 µM and 1.38 µM. Besides, the TGI in [9] is over 100 µM; in experiment [10] it was 0.382 µM and 0.551 µM.
`O=C1c2ccccc2-c2c1c1c(=O)[nH]c3ccccc3c1n2Cc1ccccc1`: the GI50 was 31.3 µM in experiment [1]; 24.5 µM in [2]; 45.4 µM in [3]; 17.8 µM in [4]; 51 µM in [5]; 17.7 µM in experiment [6]. In addition, the GI50 in experiment [7] was 33.5 µM; in experiment [8], over 100 µM; in experiment [9], 39.9 µM; in [10], 15.8 µM. In addition, the TGI in [1] is over 100 µM; in [2] it was 67.4 µM; in experiment [3], over 100 µM; in experiment [4] it was 40.5 µM; in [5], over 100 µM; in experiment [6], 48.7 µM. In addition, the TGI is over 100 µM in [7], over 100 µM in experiment [8], over 100 µM in experiment [9] and 51.5 µM in experiment [10].
As to `COc1cc(-c2cc3ncccc3c3nc(N)c4cccnc4c23)cc(OC)c1OC`, the GI50 was 0.482 µM in experiment [1]; 16.8 µM in [2]; 3.16 µM in experiment [3]; 0.361 µM in experiment [4]; 0.756 µM in experiment [5]; 0.752 µM in experiment [6]. Further, the GI50 in experiment [7] is 0.4 µM; in experiment [8] it was 0.936 µM; in [10] it was 9.17 µM. In addition, the TGI in experiment [1] is 15.7 µM; in [2], over 100 µM; in [3], over 100 µM; in [4], 2.6 µM; in experiment [5] it was 46 µM; in experiment [6] it was over 100 µM. Also, the TGI in experiment [7] is 22.6 µM; in [8] it was 59.8 µM; in experiment [10] it was over 100 µM.
Turning to `CC(=O)O[C@H]1CC[C@@]2(C)C(=CC[C@H]3[C@@H]4CC[C@H](c5cc(C(F)(F)F)n(C(C)=O)n5)[C@@]4(C)CC[C@@H]32)C1`, the TGI in experiment [1] was 22.4 µM; in experiment [2], 20.8 µM; in [3], 15.6 µM; in [4], 21.9 µM; in [5], 24.8 µM; in experiment [6], over 48.1 µM. Besides, the TGI turned out to be 24.5 µM in [7], 3.23 µM in experiment [8], 15.8 µM in experiment [9] and 6.43 µM in experiment [10].
Regarding `CCOC(=O)C1N(S(=O)(=O)c2ccc(C)cc2)CCC12c1ccccc1N(C(C)=O)C2c1ccc(OC)c(OC)c1` (stereo unspecified), the TGI in experiment [1], in experiment [2], in experiment [3], in experiment [4], in experiment [5] and in experiment [6] was over 100 µM throughout. The TGI in [7], in [8], in experiment [9] and in experiment [10] was over 100 µM each time.
On to `CCOC(=O)c1sc(-c2ccc(OS(=O)(=O)c3ccc(Br)s3)c(C=O)c2)nc1C`, for which the GI50 in experiment [1] is 2.9 µM; in [2], 3.82 µM; in experiment [3] it was 3.06 µM; in experiment [4], 2.43 µM; in experiment [5] it was 3.26 µM; in [6], 3.01 µM. Also, the GI50 in experiment [7] was 2.86 µM; in [8], 2.63 µM; in experiment [9], 1.89 µM; in experiment [10], 2.08 µM. Moreover, the TGI in [1] is 8.52 µM; in [2], 23.1 µM; in experiment [3], 9.85 µM; in experiment [4], 6.16 µM; in experiment [5], 16.5 µM; in [6] it was 13.2 µM. The TGI in [7] stood at 14.5 µM; in [8], 9.76 µM; in experiment [9] it was 3.95 µM; in experiment [10] it was 6.87 µM.
As to `O=C(CC(c1ccccc1)c1c(O)c2ccccc2oc1=O)c1ccccc1` (stereo unspecified), the TGI in experiment [1], in experiment [2], in experiment [3], in [4], in [5] and in experiment [6] was over 100 µM in each case. Further, the TGI was 46.4 µM in experiment [7], over 100 µM in experiment [8], over 100 µM in experiment [9] and over 86.5 µM in experiment [10].
